In patent US20220265657A1, “ADMINISTRATION METHOD AND DOSAGE REGIMEN FOR TREATMENT OF NEURODEGENERATIVE DISEASES USING TRAMETINIB AND MARKERS” (GENUV INC., priority 2019, published 2022):

Assays:
5XFAD mice = test: Immunofluorescence staining of Map2, Tau and swollen axons in cortex layer V; assay type: in vivo
Experimental: Trametinib treatment: Trametinib (Medchemexpress, Monmouth Junction, N.J.) was micronized and suspended in the vehicle containing 5% mannitol, 1.5% hydroxypropyl methylcellulose and 0.2% sodium lauryl sulfate. For pharmacokinetic analysis, 0.05, 0.2 and 0.8 mg/kg of trametinib were orally administered to 7-week-old normal mice (ICR, n=5 per group) as a single administration. […] For studies on the change in pERK expression in normal mice and whole cell RNA sequencing study, 0.1 mg/kg/day of trametinib (in 4% DMSO+96% corn oil) was orally administered to 6-week old C57BL/6 mice (n=3 per group). Mice were sacrificed after 1, 2, 3, or 4 weeks of administration. 5XFAD mice (male, n=7˜10 per group) were divided into vehicle and trametinib treated groups. 12-month old mice received vehicle or 0.1 mg/kg of trametinib for 1 month by oral gavage once a day (These mice are referred to as “13-month old 5XFAD mice” in the Examples). […] Blood was obtained after completion of treatment.
Brains were dissected and analyzed by immunohistochemistry. For paraffin sections, brain hemispheres were embedded sagittally in paraffin and prepared into sections of […] slices. […] The sections were counterstained with DAPI. […] NeuN-positive and active caspase 3-positive cells from cortex layer V were counted using Icy micromanager program (Institut Pasteur, Paris, France).

[1] = tested on: NSCs from adult Tg2576 mice; test: Immunofluorescence staining of NSCs from adult Tg2576 mice; assay type: cell-based; conditions: 100 nM, 48 hrs
Experimental: Cell culture: SH-SY5Y neuroblastoma cells were cultured at 37° C., 5% CO2., in Dulbecco's Modified Eagle Medium/Ham's F-12 nutrient mixture (DMEM/F12) (Invitrogen, Carlsbad, Calif.) supplemented with 10% heat-inactivated fetal bovine serum containing 100 units/ml penicillin, 100 μg/ml streptomycin. Primary cortical neuron cultures were derived from embryo day 18 (E18) from ICR mice. The dissociated cells were plated on glass cover slips coated with poly-D-lysine in Neurobasal medium supplemented with 2% B27 (Invitrogen), 100 units/ml penicillin, 100 μg/ml streptomycin, and 2 mM L-glutamine. Primary NSCs from normal mice were isolated from the subventricular zone (SVZ) of 8 week-old C57BL/6 mice brain. NSCs from adult Tg2576 mice brain were obtained from Seoul National University Hospital. The neurospheres were cultured as previously described (M. Y. Kim, B. S. Moon, K. Y. Choi, Isolation and maintenance of cortical neural progenitor cells in vitro. Methods Mol Biol 1018, 3-10 (2013)). For neurosphere culture from normal mice, the cells were dissociated from brain tissue and grown in N2 medium in 25 cm^2 flasks (SPL, Gyeonggi-do, Korea) in suspension. bFGF (20 ng/ml, Peprotech, Princeton, N.J.) and human EGF (20 ng/ml, Peprotech) were added to the media to allow the cells to form neurospheres. For analyses, NSCs were cultured as a monolayer. For differentiation of NSCs, the neurospheres were dissociated with TrypLE (Invitrogen), plated on 15 μg/ml poly-L-ornithine-(Sigma-Aldrich, St. Louis, Mo.) and 10 μg/ml fibronectin (Gibco)-coated plates, and cultured in bFGF- and EGF-depleted N2 medium for 2 days. For neurosphere culture from Tg2576 mice, the cells were grown in DMEM/F12 supplemented with B27 supplements in 75 cm^2 flasks (SPL) in suspension. bFGF (10 ng/ml) and human EGF (10 ng/ml) were added to the media to allow the cells to form neurospheres. For inducing differentiation and AP expression, the neurospheres were dissociated with pipetting, plated on 15 μg/ml poly-L-ornithine- and 10 μg/ml fibronectin (Gibco)-coated plates, and cultured in bFGF- and EGF-depleted medium for 2 days.
Immunocytochemistry: SH-SY5Y cells or adult NSCs were placed on glass coverslips coated with poly-L-ornithine/laminin or poly-D-lysine, respectively. After washing three times with PBS for 5 min, cells were fixed in 10% formalin for 15 min at room temperature. The cells were then washed with PBS and permeabilized in 0.1% Triton X-100 for 2 min. Cells were placed in blocking solution containing 5% BSA in PBS for 1 h at room temperature and incubated with anti-active caspase 3 (cell signaling), anti-Aβ (thermo), anti-Tau (Cell signaling), anti-LC3 (Cell signaling) and anti-LAMP1 (Abcam) in blocking buffer for 2 h at room temperature. After washing, cells were incubated with goat anti-rabbit antibody conjugated with Alexa Fluor 488 (Thermo) and/or goat anti-rat antibody conjugated with Alexa Fluor 555 (Thermo) overnight. After washing, cells were incubated with 4′,6-diamidino-2-phenylindole (DAPI) for 5 min. Coverslips were mounted using mounting medium (Biomeda, Foster City, Calif.) and visualized by confocal microscopy using a LSM700 microscope (Carl Zeiss). The percentage of coefficient was calculated using the pixels above threshold of fluorescence intensities. […] The fluorescence intensity was observed under a confocal microscopy using a LSM700 microscope (Carl Zeiss). The number of LysoTracker puncta was analyzed with Icy software.

For `CC(=O)Nc1cccc(-n2c(=O)n(C3CC3)c(=O)c3c(Nc4ccc(I)cc4F)n(C)c(=O)c(C)c32)c1` [trametinib], the bulb-like swollen axons (5XFAD mice; 5XFAD mice, compared to vehicle-administered group) was “significantly reduced”, the “dendritic and axonal lengths (Map2, Tau)” value (5XFAD mice; cortex of 8-month-old and 13-month-old 5XFAD mice) was “recovery of dendritic and axonal lengths” and the “active caspase 3” value [1] was “reduced active caspase 3”. For the same compound, the “autophagosome-lysosome fusions in axon-like elongated elements and soma” value [1] was “markedly increased”, the “cells with bipolar morphology with elongated neurites” value [1] was “marked increase” and the “differentiation of NSCs into neuron-like cells” value [1] was “strongly induced differentiation of NSCs into neuron-like cells”. The “expression of autophagosomes and lysosomes (LC3 and LAMP1 staining)” value [1] was “markedly increased”.
